In article PMC9081605, “A High-Throughput Toxicity Screen of 42 Per- and Polyfluoroalkyl Substances (PFAS) and Functional Assessment of Migration and Gene Expression in Human Placental Trophoblast Cells” (Frontiers in Toxicology, 2022):

How the values were obtained:
Assay type in all cases: cell-based, human
[1] = tested on: JEG-3 cells; experiment: Proliferation, change in confluence 0-24 h (IncuCyte Zoom, HTTS); conditions: for minimal effective concentration: read-out: Prolif ↓, lowest concentration at which the mean response value exceeded the mean control value ± 2*SD (rough binning); for cellular proliferation relative to vehicle control (rough binning): after 24 h, in at least one concentration
Excerpt: (§1) JEG-3 human choriocarcinoma trophoblastic cells (American Type Culture Collection, VA, United States) were maintained in sterile-filtered Minimum Essential Media (MEM) supplemented with L-glutamine and phenol red (Thermo Fisher Scientific, MA, United States), 10% (v/v) heat-inactivated BenchMark Fetal Bovine Serum (Gemini Bio, CA, United States), 1% (v/v) sodium pyruvate (Thermo Fisher Scientific, MA, United States), and 1% (v/v) penicillin streptomycin (Sigma Aldrich, MO, United States). Cells were maintained in an incubator at 37°C with 5% CO2. JEG-3 cells were cultured in 10 cm tissue culture plates and cell passage numbers were recorded.
(§2) A total of 42 perfluoroalkyl substances (PFAS) were evaluated (Supplementary Table S1 contains source and purity). PFAS stock solutions were maintained in 100% methanol as previous work has shown certain PFAS degrade when stored in dimethyl sulfoxide (DMSO; [Gaballah et al., 2020]). […] The vehicle control group consisted of 97.5% media + 2.5% methanol to match the concentration of methanol in the media at the highest PFAS concentration tested (500 µM). Menadione (50–500 µM) was used as a positive control for cytotoxicity assessment. PFAS were de-identified and assigned random numbers to eliminate bias. Chemical exposure plate maps were designed so that all experimental conditions were tested in at least technical duplicates per plate. The outer edges of each plate received media alone and were excluded from all analyses to avoid edge effects. Each plate map included 14 technical replicates of the vehicle control group and 14 technical replicates of media only. Biological replicates were defined as separate 384 well plates tested on separate days using different cell passages. The experimental workflow is depicted in Supplementary Figure S1.
(§3) JEG-3 cells were counted using a Z2 Coulter Particle Counter (Beckman Coulter, CA, United States) and seeded at a density of 2,500 cells per well in black-walled, clear bottom 384 well plates (Corning, #3764) and allowed to adhere overnight. Approximately 24 h later, 384 well plates were imaged using an IncuCyte Zoom live cell imager (Essen BioScience Inc., MI, United States) to obtain baseline cellular confluence measurements prior to chemical dosing (0 h). Media was removed from wells and replaced with fresh media containing chemical treatments (exposure media) using a Viaflo liquid handling device (Integra Biosciences, NH, United States). Within 30 min of exposure media application, plates were again imaged for cellular confluence using the IncuCyte Zoom. Plates were incubated with exposure media for 24 h and then imaged again using the IncuCyte Zoom (24 h).
Plate well bottom images were evaluated using automated cell masking. The automated cell masking program was developed using IncuCyte Zoom base software. Cell masking parameters were defined using a training set of JEG-3 cell images obtained prior to conducting the experiments and following IncuCyte Zoom software recommendations. Briefly, the training images were obtained from cell culture plates with varying levels of JEG-3 cellular confluence (ranging from ∼15% confluent to ∼95% confluent). Parameters for the automated cell masking were first manually set by an experimenter for 3-6 images of low (∼15–30%), medium (∼30–70%), and high confluence (∼70% or greater). The training images were then evaluated by the automated masking program and manually checked to ensure the parameters were sufficiently strict to ignore background (e.g., blank space on the plate well bottom) but adequately sensitive to detect cell borders. The masking program was then implemented on the experimental plates to obtain a baseline cellular confluence measurement at 0 h and a second confluence measurement at 24 h. […]

[2] = tested on: JEG-3 cells; experiment: Mitochondrial membrane potential, JC-10 assay (HTTS); conditions: for minimal effective concentration: read-out: MMP ↓, lowest concentration at which the mean response value exceeded the mean control value ± 2*SD (rough binning); for MMP relative to vehicle control (rough binning): after 24 h, in at least one concentration
Excerpt: as §1, §2, §3
The JC-10 assay (Enzo Life Sciences, NY, United States) was used to evaluate mitochondrial membrane potential, the main bioenergetic parameter that regulates respiratory rate, ATP synthesis and reactive oxygen species generation. In cells with polarized mitochondrial membranes, the JC-10 dye localizes to the mitochondrial matrix and forms red fluorescent aggregates (540/590 nm). In cells with depolarized mitochondrial membranes, the JC-10 dye localizes in the cytoplasm and converts to a green fluorescent monomer (490/525 nm). Mitochondrial membrane potential was calculated as the ratio of the green and red fluorescence intensities within a well.
At the end of the 24 h exposure period, exposure media was removed from the plate. The plate wells were then washed with 1x phosphate buffered saline (1x PBS). After washing, the JC-10 reagent was suspended in fresh 1x PBS and 20 µl was added to each well at a final concentration of 20 μM (Enzo Life Sciences, NY, United States). The plate was incubated for 1 h at 37°C, and the fluorescence intensities at excitation/emission wavelengths of 490/525 nm and 540/590 nm were measured using a CLARIOstar (BMG Labtech, Offenburg, Germany) plate reader, respectively.
HTTS data were analyzed using a custom data analysis script in R v 1.2.5019 ([R Core Team, 2019]). […]

[3] = tested on: JEG-3 cells; experiment: CellTiter-Glo luminescent cell viability assay (HTTS); conditions: for EC50: four-parameter fit, estimates meeting inclusion criteria; for Viability ↓, lowest concentration at which the mean response value exceeded the mean control value ± 2*SD (rough binning): decrease; for cell viability relative to vehicle control (rough binning): after 24 h, in at least one concentration
Excerpt: as §1, §2, §3
In the same plate evaluated for mitochondrial membrane potential, cell viability measures were duplexed using the CellTiter-Glo (CTG) Luminescent Cell Viability Assay (Promega, WI, United States). CTG reagent was added to each well at a volume of 20 µl. The plate was left at room temperature to incubate for 5 min and then 20 µl from each well was transferred to a low-volume, round-bottom, white 384 well plate (Corning, NY, United States). The CTG reagent lyses cellular and mitochondrial membranes and binds to adenosine triphosphate (ATP) released by cells, which produces a luminescence signal. The intensity of the luminescence was considered a proxy measure for the number of live cells in a well. The luminescence intensities were measured using the CLARIOstar plate reader.
HTTS data were analyzed using a custom data analysis script in R v 1.2.5019 ([R Core Team, 2019]). Briefly, raw data points corresponding to the confluence measurements at 0 and 24 h, the fluorescence intensities corresponding to MMP, and the relative luminescence units (RLU) corresponding to cell viability were imported directly from Microsoft Excel into the R programming environment, RStudio. Separate plates run on separate days using different JEG-3 passages were considered as biologic replicates. […]

[4] = Homo sapiens, JEG-3, 24 h, read-out: Proliferation EC50 ± SD, JEG-3 cells, 24 h exposure, four-parameter fit, estimates meeting inclusion criteria
[5] = JEG-3 cells, raw model output including fits that did not meet inclusion criteria, read-out: Proliferation EC50 ± SD (raw values)
[6] = Homo sapiens, JEG-3, 24 h, read-out: MMP EC50 ± SD, JEG-3 cells, 24 h exposure, four-parameter fit, estimates meeting inclusion criteria

## O=C(O)C(F)(F)OC(F)(F)C(F)(F)OC(F)(F)C(F)(F)OC(F)(F)C(F)(F)C(F)(F)C(F)(F)F [Perfluoro-3,6,9-trioxatridecanoic acid]
[1]; Homo sapiens, JEG-3, 24 h
  minimal effective concentration: 400 µM
[1]; [4]
  EC50: 332 ± 34.1 µM
[1]
  cellular proliferation relative to vehicle control (rough binning): reduced cellular proliferation
[2]; Homo sapiens, JEG-3, 24 h
  minimal effective concentration: 50 µM
[2]
  MMP relative to vehicle control (rough binning): reduced MMP
[3]; Homo sapiens, JEG-3, 24 h, read-out: Viability EC50 ± SD, JEG-3 cells, 24 h exposure
  EC50: 195 ± 54.6 µM
[3]; JEG-3 cells, 24 h
  Viability ↓, lowest concentration at which the mean response value exceeded the mean control value ± 2*SD (rough binning): 300 µM
[3]
  cell viability relative to vehicle control (rough binning): reduced cell viability

## O=C(O)CCC(F)(F)C(F)(F)C(F)(F)C(F)(F)C(F)(F)F [2H,2H,3H,3H-Perfluorooctanoic acid]
[1]; JEG-3 cells, 24 h, increase
  Prolif ↑, lowest concentration at which the mean response value exceeded the mean control value ± 2*SD (rough binning): 50 µM
[1]; [5]
  EC50: 951 ± 671 µM
[1]
  cellular proliferation relative to vehicle control (rough binning): increased cellular proliferation
[2]; JEG-3 cells, raw model output including fits that did not meet inclusion criteria, read-out: MMP EC50 ± SD (raw values)
  EC50: 71780 ± 10 µM
[3]
  cell viability relative to vehicle control (rough binning): increased cell viability

## O=C(O)C(F)(F)C(F)(F)C(F)(F)C(F)(F)C(F)(F)C(F)(F)C(F)(F)C(F)F [9-H-Perfluorononanoic acid]
[1]; [5]
  EC50: 1230 ± 118 µM
[2]; JEG-3 cells, 24 h exposure, four-parameter fit, estimates meeting inclusion criteria, read-out: MMP EC50 ± SD
  EC50: 187 ± 27.6 µM
[3]; JEG-3 cells, 24 h exposure, read-out: Viability EC50 ± SD
  EC50: 350 ± 43.1 µM

## O=C(O)C(F)(F)OC(F)(F)C(F)(F)OC(F)(F)C(F)(F)C(F)(F)C(F)(F)F [Perfluoro-3,6-dioxadecanoic acid]
[1]; Homo sapiens, JEG-3, 24 h
  minimal effective concentration: 300 µM
[1]; [4]
  EC50: 283 ± 25.7 µM
[1]
  cellular proliferation relative to vehicle control (rough binning): reduced cellular proliferation
[2]; [6]
  EC50: 350 ± 16.1 µM
[2]; Homo sapiens, JEG-3, 24 h
  minimal effective concentration: 400 µM
[2]
  MMP relative to vehicle control (rough binning): reduced MMP
[3]; JEG-3 cells, 24 h
  Viability ↓, lowest concentration at which the mean response value exceeded the mean control value ± 2*SD (rough binning): 400 µM
[3]
  cell viability relative to vehicle control (rough binning): reduced cell viability

## O=C(O)C(F)(F)C(F)(F)C(F)(F)C(F)(F)C(F)(F)F [Perfluorohexanoic acid]
[1]; Homo sapiens, JEG-3, 24 h
  minimal effective concentration: 100 µM
[1]; Homo sapiens, JEG-3, read-out: Proliferation EC50 ± SD (raw values), JEG-3 cells, raw model output including fits that did not meet inclusion criteria
  EC50: 10418 ± 10 µM
[1]
  cellular proliferation relative to vehicle control (rough binning): reduced cellular proliferation
[2]; [6]
  EC50: 142 ± 12.6 µM
[2]; Homo sapiens, JEG-3, 24 h, read-out: MMP EC50 ± SE, JEG-3 cells, 24 h
  EC50: 141 ± 11.1 µM
[2]; Homo sapiens, JEG-3, 24 h
  minimal effective concentration: 100 µM
[2]
  MMP relative to vehicle control (rough binning): reduced MMP
[3]; JEG-3 cells, 24 h, increase
  Viability ↑, lowest concentration at which the mean response value exceeded the mean control value ± 2*SD (rough binning): 300 µM
[3]
  cell viability relative to vehicle control (rough binning): increased cell viability
